Our source for the GI50 and IC50 values is patent publication US9834571B2, “Compounds for inhibiting cell proliferation in EGFR-driven cancers” (ARIAD Pharmaceuticals, Inc., priority 2012, dated 2017).

In general, IC50 refers to the midpoint of a concentration-inhibition curve.

Where two headings read alike, the source gives them in different places. A value given as a limit tells only on which side of the number the result lay.

Test [1] has as its target T1, BaF3 cells expressing the target EGFR mutations (Homo sapiens, UniProt P00533, T790M, cells depend on it, form not given).
T1 construct: IC50, BAF3 EGFR DEL T790M PURO POOL; other: BAF3 EGFR DEL T790M PURO POOL cells, MTT; other: BAF3 EGFR DEL T790M PURO POOL cells; MTT
Kind of test: Antiproliferative activity (MTT) against BaF3 cells expressing the target EGFR mutations. The settings on record: BAF3 EGFR DEL T790M PURO POOL cells, read-out: IC50, BAF3 EGFR DEL T790M PURO POOL. It is filed as cell-based. In outline:
(§1)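 In this screen, MTT reduction reported on proliferation of BaF3 cells dependent on mutated EGFR and of matched BaF3 cells expressing wildtype receptor.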

In test [2] the target is T2, BaF3 cells expressing the target EGFR mutations (Homo sapiens, UniProt P00533, T790M/L858R, cells depend on it).
T2 construct: IC50, BAF3 EGFR L858R-T790M PURO POOL; other: BAF3 EGFR L858R-T790M PURO POOL cells, MTT; IC50, BAF3 EGFR L858R-T790M PURO POOL; other: BAF3 EGFR L858R-T790M PURO POOL cells; MTT
T2 sequence (P00533 whole entry T790M/L858R): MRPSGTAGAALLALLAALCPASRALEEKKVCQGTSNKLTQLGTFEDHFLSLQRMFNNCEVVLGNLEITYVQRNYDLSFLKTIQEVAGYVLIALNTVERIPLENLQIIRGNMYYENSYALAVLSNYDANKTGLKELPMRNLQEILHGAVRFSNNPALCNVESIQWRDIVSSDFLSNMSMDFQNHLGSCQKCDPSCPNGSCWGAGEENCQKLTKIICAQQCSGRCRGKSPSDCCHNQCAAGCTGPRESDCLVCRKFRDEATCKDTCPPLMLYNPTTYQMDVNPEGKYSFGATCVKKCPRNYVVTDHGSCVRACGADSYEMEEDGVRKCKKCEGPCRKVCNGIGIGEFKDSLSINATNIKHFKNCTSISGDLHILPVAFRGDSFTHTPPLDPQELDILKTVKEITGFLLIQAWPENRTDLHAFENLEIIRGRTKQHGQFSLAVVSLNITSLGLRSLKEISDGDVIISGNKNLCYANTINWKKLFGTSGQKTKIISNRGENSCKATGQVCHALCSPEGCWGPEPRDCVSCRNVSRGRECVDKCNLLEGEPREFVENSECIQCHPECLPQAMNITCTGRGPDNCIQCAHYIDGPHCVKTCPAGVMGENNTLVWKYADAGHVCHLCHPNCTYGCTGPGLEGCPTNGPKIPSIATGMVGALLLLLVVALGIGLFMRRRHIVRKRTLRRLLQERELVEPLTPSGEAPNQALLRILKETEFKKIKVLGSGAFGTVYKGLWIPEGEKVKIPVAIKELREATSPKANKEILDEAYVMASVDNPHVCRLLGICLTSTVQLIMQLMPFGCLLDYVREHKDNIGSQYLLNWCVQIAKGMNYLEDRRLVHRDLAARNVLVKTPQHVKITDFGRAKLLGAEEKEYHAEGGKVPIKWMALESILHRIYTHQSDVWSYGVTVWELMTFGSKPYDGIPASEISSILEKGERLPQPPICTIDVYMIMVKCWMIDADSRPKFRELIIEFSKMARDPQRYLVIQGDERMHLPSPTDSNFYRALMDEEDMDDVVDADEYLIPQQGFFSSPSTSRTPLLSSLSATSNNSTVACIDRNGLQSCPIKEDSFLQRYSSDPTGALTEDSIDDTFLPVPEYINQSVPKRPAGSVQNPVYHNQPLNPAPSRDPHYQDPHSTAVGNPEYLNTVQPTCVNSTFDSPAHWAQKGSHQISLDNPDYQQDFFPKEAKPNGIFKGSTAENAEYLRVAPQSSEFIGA
The description is as above. It is filed as cell-based. The settings on record: BAF3 EGFR L858R-T790M PURO POOL cells, read-out: IC50, BAF3 EGFR L858R-T790M PURO POOL. In outline: as §1

The subject of test [3] is BaF3 cells expressing wildtype EGFR. Kind of test: Antiproliferative activity (MTT) against control BaF3 cells expressing wildtype EGFR. It is filed as cell-based. As to conditions: Mus musculus. In outline: as §1
Another test has as its target EGFR L858R/T790M (Homo sapiens, UniProt P00533, L858R/T790M). In words: Kinase inhibitory activity against EGFR bearing the L858R/T790M double mutation. It is filed as biochemical. As to conditions: 10 μM ATP, read-out: IC50 for kinase inhibition, EGFR L858R T790M. A digest of the protocol:
(§2)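 Testing covers a ten-concentration range beginning at 3 μM, performed once per concentration at an ATP level of 10 μM.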

A further test deals with EGFR L858R (Homo sapiens, UniProt P00533, L858R). In words: Kinase inhibitory activity against EGFR bearing the L858R mutation. It is filed as biochemical. As to conditions: 10 μM ATP, read-out: IC50 for kinase inhibition, EGFR L858R. In outline: as §2
EGFR L858R, sequence (P00533 25-1210 L858R): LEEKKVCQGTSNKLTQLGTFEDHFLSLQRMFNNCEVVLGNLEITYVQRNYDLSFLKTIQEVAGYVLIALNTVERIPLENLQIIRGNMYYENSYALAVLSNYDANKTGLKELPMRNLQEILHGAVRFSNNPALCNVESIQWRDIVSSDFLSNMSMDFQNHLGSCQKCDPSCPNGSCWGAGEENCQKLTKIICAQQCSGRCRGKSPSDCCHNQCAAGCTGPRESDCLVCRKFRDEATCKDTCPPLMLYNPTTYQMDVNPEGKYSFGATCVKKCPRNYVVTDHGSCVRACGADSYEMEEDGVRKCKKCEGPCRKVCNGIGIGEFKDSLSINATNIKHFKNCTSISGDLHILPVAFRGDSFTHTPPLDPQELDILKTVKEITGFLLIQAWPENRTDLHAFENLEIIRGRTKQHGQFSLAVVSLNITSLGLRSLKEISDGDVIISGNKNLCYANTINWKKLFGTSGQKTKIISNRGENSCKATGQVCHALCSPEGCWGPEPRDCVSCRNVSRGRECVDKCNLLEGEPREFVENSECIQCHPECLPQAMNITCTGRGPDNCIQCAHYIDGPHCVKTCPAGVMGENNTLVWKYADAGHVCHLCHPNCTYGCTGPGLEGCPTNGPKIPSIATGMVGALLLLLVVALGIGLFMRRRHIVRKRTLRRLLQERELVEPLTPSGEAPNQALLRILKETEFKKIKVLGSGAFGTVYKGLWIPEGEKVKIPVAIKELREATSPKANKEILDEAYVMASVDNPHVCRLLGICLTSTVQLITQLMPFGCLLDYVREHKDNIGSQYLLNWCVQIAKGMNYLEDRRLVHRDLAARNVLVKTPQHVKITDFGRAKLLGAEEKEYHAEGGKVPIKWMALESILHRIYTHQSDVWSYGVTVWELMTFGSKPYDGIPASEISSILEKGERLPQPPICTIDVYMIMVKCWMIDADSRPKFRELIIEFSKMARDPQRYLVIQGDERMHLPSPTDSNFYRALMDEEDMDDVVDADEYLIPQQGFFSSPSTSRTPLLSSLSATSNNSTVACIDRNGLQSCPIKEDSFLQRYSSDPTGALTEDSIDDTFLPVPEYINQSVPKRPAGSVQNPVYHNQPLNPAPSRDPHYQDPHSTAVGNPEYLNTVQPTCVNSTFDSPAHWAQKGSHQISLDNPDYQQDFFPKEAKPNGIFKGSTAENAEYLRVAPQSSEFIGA
In test [4] the target is human EGFR (native sequence) (Homo sapiens, UniProt P00533). Kind of test: Kinase inhibitory activity against human EGFR (native sequence). It is filed as biochemical. As to conditions: 10 μM ATP, read-out: IC50 for kinase inhibition, EGFR. A digest of the protocol: as §2
human EGFR (native sequence), sequence (P00533 25-1210): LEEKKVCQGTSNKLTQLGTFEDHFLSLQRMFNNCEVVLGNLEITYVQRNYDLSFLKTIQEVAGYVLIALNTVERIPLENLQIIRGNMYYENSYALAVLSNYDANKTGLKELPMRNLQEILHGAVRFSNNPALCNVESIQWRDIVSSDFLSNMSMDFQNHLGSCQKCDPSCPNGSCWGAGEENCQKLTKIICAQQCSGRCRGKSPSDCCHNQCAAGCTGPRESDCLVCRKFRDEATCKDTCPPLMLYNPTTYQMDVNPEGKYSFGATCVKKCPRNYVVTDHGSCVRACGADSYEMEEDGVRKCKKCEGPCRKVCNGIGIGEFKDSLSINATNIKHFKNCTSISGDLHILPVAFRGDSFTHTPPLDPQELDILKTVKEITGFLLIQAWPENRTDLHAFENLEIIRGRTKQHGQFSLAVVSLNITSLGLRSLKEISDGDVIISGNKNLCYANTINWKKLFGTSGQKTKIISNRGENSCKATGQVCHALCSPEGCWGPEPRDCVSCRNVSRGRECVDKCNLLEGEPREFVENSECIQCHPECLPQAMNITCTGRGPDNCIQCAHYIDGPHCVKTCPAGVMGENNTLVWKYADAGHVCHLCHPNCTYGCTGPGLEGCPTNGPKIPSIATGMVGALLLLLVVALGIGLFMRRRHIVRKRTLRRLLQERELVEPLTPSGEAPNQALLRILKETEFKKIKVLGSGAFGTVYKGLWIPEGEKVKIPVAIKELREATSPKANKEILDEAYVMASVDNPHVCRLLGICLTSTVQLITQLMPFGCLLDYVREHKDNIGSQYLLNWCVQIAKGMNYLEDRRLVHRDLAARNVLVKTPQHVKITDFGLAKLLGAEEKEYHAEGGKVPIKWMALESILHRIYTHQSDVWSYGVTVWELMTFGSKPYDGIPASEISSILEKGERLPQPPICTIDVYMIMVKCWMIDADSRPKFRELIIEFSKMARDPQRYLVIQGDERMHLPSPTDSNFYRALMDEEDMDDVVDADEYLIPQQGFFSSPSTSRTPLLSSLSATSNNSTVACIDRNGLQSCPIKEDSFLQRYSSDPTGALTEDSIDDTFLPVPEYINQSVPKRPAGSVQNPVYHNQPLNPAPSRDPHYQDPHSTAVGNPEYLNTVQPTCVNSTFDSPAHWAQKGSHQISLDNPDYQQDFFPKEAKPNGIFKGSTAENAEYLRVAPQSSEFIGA
[5] abbreviates: EGFR L858R/T790M double mutation.
[6] abbreviates: 10 pt curves, 3 μM top concentration.

EGFR L858R/T790M, sequence (P00533 25-1210 T790M/L858R): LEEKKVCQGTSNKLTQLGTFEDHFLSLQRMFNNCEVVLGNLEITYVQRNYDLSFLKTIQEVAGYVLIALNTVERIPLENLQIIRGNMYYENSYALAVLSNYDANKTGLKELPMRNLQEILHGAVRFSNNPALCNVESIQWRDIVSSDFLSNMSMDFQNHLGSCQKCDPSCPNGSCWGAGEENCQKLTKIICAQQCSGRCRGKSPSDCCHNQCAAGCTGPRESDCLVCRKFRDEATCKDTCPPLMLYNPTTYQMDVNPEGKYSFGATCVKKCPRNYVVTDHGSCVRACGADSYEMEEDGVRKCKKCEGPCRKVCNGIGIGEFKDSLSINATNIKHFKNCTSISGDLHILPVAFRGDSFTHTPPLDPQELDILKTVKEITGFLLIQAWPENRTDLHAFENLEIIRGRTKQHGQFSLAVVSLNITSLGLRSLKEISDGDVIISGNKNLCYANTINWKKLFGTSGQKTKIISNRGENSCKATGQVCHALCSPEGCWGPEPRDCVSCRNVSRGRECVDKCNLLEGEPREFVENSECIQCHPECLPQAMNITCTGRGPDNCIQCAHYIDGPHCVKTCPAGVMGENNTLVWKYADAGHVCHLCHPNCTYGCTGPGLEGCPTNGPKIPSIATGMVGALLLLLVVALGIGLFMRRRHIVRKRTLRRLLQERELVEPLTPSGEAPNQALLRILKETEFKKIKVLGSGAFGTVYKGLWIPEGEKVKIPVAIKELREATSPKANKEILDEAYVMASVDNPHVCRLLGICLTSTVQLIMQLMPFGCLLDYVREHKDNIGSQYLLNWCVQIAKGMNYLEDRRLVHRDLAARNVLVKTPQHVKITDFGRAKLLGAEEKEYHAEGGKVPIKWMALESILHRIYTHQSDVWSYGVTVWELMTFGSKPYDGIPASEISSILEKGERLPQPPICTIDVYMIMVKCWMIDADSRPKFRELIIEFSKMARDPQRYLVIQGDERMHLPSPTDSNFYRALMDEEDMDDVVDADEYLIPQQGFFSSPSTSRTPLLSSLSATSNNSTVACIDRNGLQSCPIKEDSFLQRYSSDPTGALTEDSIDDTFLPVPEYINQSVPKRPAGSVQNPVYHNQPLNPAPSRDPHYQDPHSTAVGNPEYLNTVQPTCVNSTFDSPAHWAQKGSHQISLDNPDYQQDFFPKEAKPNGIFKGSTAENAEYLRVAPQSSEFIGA

As for `COc1ccc(NC(=O)/C=C/C2(NC(=O)OC(C)(C)C)CC2)cc1Nc1ncc(Cl)c(Nc2ccccc2P(C)(C)=O)n1` [Example 76, (E)-tert-butyl (1-(3-((3-((5-chloro-4-((2-(dimethylphosphoryl)phenyl)amino)pyrimidin-2-yl)amino)-4-methoxyphenyl)amino)-3-oxoprop-1-en-1-yl)cyclopropyl)carbamate], the GI50 in test [1] and in test [2] was ≥ 0.25 µM throughout. For the same molecule, the IC50 (in test [3] (BAF3 PARENTAL cells (control)); at EGFR L858R/T790M (setting [5]); on EGFR L858R (EGFR L858R); in test [4] (human EGFR native sequence)) was ≥ 0.25 µM in each case.

Consider `COc1cc(N2CCCC2)c(NC(=O)C#CCCN2CCN(C)CC2)cc1Nc1ncc(Cl)c(Nc2ccccc2P(C)(C)=O)n1` [Example 119, N-(5-((5-chloro-4-((2-(dimethylphosphoryl)phenyl)amino)pyrimidin-2-yl)amino)-4-methoxy-2-(pyrrolidin-1-yl)phenyl)-5-(4-methylpiperazin-1-yl)pent-2-ynamide], for which the GI50 in test [1] and in test [2] was 0.101 to 0.25 µM in each case. Besides, the IC50 is ≥ 0.25 µM in test [3] (BAF3 parental cells), < 0.05 µM on EGFR L858R/T790M (setting [6]), < 0.05 µM at EGFR L858R (setting [6]) and < 0.05 µM in test [4] (setting [6]).

Take `C=CC(=O)Nc1cc(Nc2ncc(Cl)c(Nc3ccccc3P(C)(C)=O)n2)c(OC)cc1N1CCC(N2CCC2)C1` (stereo not drawn) [Example 68, N-(2-(3-(azetidin-1-yl)pyrrolidin-1-yl)-5-((5-chloro-4-((2-(dimethylphosphoryl)phenyl)amino)pyrimidin-2-yl)amino)-4-methoxyphenyl)acrylamide]: the GI50 in test [1] and in test [2] was < 0.05 µM each time. The IC50 in test [3] (BAF3 PARENTAL cells (control)) was ≥ 0.25 µM; at EGFR L858R/T790M (setting [5]) it was < 0.05 µM; at EGFR L858R (EGFR L858R) it was < 0.05 µM; in test [4] (human EGFR native sequence), < 0.05 µM.

Consider `COc1ccc(NC(=O)C#CC(C)(C)N2CCCC2)cc1Nc1ncc(Cl)c(Nc2ccccc2P(C)(C)=O)n1` [Example 91, N-(3-((5-chloro-4-((2-(dimethylphosphoryl)phenyl)amino)pyrimidin-2-yl)amino)-4-methoxyphenyl)-4-methyl-4-(pyrrolidin-1-yl)pent-2-ynamide], for which the GI50 in test [1] and in test [2] was < 0.05 µM in each case. The IC50 was ≥ 0.25 µM in test [3] (BAF3 PARENTAL cells (control)), < 0.05 µM on EGFR L858R/T790M (setting [5]), < 0.05 µM at EGFR L858R (EGFR L858R) and < 0.05 µM in test [4] (human EGFR native sequence).

Consider `CNC(=O)/C=C/C(=O)Nc1ccc(OC)c(Nc2ncc(Cl)c(Nc3ccccc3P(C)(C)=O)n2)c1` [Example 109, N1-(3-((5-chloro-4-((2-(dimethylphosphoryl)phenyl)amino)pyrimidin-2-yl)amino)-4-methoxyphenyl)-N4-methylfumaramide], for which the GI50 in test [1] lay within 0.05 to 0.1 µM; in test [2], 0.101 to 0.25 µM. Moreover, the IC50 in test [3] (BAF3 parental cells) is ≥ 0.25 µM; at EGFR L858R/T790M (setting [6]) it was < 0.05 µM; at EGFR L858R (setting [6]), < 0.05 µM; in test [4] (setting [6]), ≥ 0.25 µM.

For the molecule `C=CC(=O)Nc1cc(Nc2ncc(Cl)c(Nc3ccccc3P(C)(C)=O)n2)c(OC)cc1OCC1CCN(C)CC1` [Example 3, N-(5-((5-chloro-4-((2-(dimethylphosphoryl)phenyl)amino)pyrimidin-2-yl)amino)-4-methoxy-2-((1-methylpiperidin-4-yl)methoxy)phenyl)acrylamide], the GI50 in test [1] was 0.101 to 0.25 µM; in test [2], ≥ 0.25 µM. The IC50 in test [3] (BAF3 PARENTAL cells (control)) is ≥ 0.25 µM; at EGFR L858R/T790M (setting [5]), < 0.05 µM; on EGFR L858R (EGFR L858R) it was < 0.05 µM; in test [4] (human EGFR native sequence), 0.05 to 0.1 µM.

Regarding `C=CC(=O)Nc1cc(Nc2ncc(Cl)c(Nc3ccccc3P(C)(C)=O)n2)c(OC)cc1N1CCC(N(CC)CC)C1` (stereo not drawn) [Example 34, N-(5-((5-chloro-4-((2-(dimethylphosphoryl)phenyl)amino)pyrimidin-2-yl)amino)-2-(3-(diethylamino)pyrrolidin-1-yl)-4-methoxyphenyl)acrylamide], the GI50 in test [1] and in test [2] was < 0.05 µM in each case. The IC50 in test [3] (BAF3 PARENTAL cells (control)) was ≥ 0.25 µM; at EGFR L858R/T790M (setting [5]) it was < 0.05 µM; at EGFR L858R (EGFR L858R) it was < 0.05 µM; in test [4] (human EGFR native sequence), < 0.05 µM.

In the case of `C=CC(=O)Nc1cc(Nc2ncc(Cl)c(Nc3ccccc3P(C)(C)=O)n2)c(CC)cc1C#CCN(C)C` [Example 152, N-(5-((5-chloro-4-((2-(dimethylphosphoryl)phenyl)amino)pyrimidin-2-yl)amino)-2-(3-(dimethylamino)prop-1-yn-1-yl)-4-ethylphenyl)acrylamide], the GI50 in test [1] and in test [2] was < 0.05 µM throughout. Besides, the IC50 in test [3] (BAF3 parental cells) was ≥ 0.25 µM; at EGFR L858R/T790M (setting [6]) it was < 0.05 µM; at EGFR L858R (setting [6]) it was < 0.05 µM; in test [4] (setting [6]) it was < 0.05 µM.

As for `C=CC(=O)Nc1cc(Nc2ncc(Cl)c(Nc3ccccc3S(=O)(=O)C(C)C)n2)c(OC)cc1C#CCN(C)C` [Example 153, N-(5-((5-chloro-4-((2-(isopropylsulfonyl)phenyl)amino)pyrimidin-2-yl)amino)-2-(3-(dimethylamino)prop-1-yn-1-yl)-4-methoxyphenyl)acrylamide], the GI50 in test [1] and in test [2] was < 0.05 µM throughout. The IC50 in test [3] (BAF3 parental cells) is ≥ 0.25 µM; at EGFR L858R/T790M (setting [6]), < 0.05 µM; on EGFR L858R (setting [6]), < 0.05 µM; in test [4] (setting [6]), < 0.05 µM.

As to `C=CC(=O)Nc1cc(Nc2ncc(Cl)c(Nc3ccccc3P(C)(C)=O)n2)c(OC)cc1OC1CCN(C)C1` (stereo not drawn) [Example 13, N-(5-((5-chloro-4-((2-(dimethylphosphoryl)phenyl)amino)pyrimidin-2-yl)amino)-4-methoxy-2-((1-methylpyrrolidin-3-yl)oxy)phenyl)acrylamide], the GI50 in test [1] and in test [2] was < 0.05 µM in each case. In addition, the IC50 in test [3] (BAF3 PARENTAL cells (control)) was ≥ 0.25 µM; at EGFR L858R/T790M (setting [5]), < 0.05 µM; on EGFR L858R (EGFR L858R) it was < 0.05 µM; in test [4] (human EGFR native sequence), < 0.05 µM.

Consider `C=CC(=O)Nc1ccc(Cl)c(Nc2ncc(Cl)c(Nc3ccccc3P(C)(C)=O)n2)c1` [Example 136, N-(4-chloro-3-((5-chloro-4-((2-(dimethylphosphoryl)phenyl)amino)pyrimidin-2-yl)amino)phenyl)acrylamide], for which the GI50 in test [1] and in test [2] was < 0.05 µM throughout. Also, the IC50 in test [3] (BAF3 parental cells) is ≥ 0.25 µM; at EGFR L858R/T790M (setting [6]), < 0.05 µM; on EGFR L858R (setting [6]) it was < 0.05 µM; in test [4] (setting [6]), < 0.05 µM.
